Results as given in PubChem BioAssay AID248 (DTP/NCI, 2004).
Where “and” joins values, the source holds several entries; their conditions need not be identical. Identical values can stand only once. Inconclusive results and toxic doses are left out. Cut-off read from the data, not from the text of the source: active = T/C of 150% or more; inactive = T/C below 125%.

Test system: L1210 leukemia ip in BDF1 mice, survival T/C
Experiment: NCI In Vivo Anticancer Drug Screen. Data for tumor model L1210 Leukemia (intraperitoneal) in B6D2F1 (BDF1) mice
Conditions: endpoint: mean survival time, higher = longer survival
Summary of the method: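 Tumor cells were implanted, animals were treated, and survival was followed. The result divides the treated measurement by the vehicle-control measurement.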

[1] = dose: 100.0 mg/kg/injection, schedule: Q01DX009 (ip), vehicle: saline
[2] = dose: 100.0 mg/kg/injection, schedule: Q04DX003 (ip), vehicle: saline
[3] = dose: 200.0 mg/kg/injection, schedule: Q01DX009 (ip), vehicle: saline
[4] = dose: 200.0 mg/kg/injection, schedule: Q04DX003 (ip), vehicle: saline
[5] = dose: 400.0 mg/kg/injection, schedule: Q04DX003 (ip), vehicle: saline
[6] = dose: 100.0 mg/kg/injection, schedule: Q04DX003 (ip), vehicle: Klucel (hydroxypropylcellulose) (HPC)
[7] = dose: 200.0 mg/kg/injection, schedule: Q04DX003 (ip), vehicle: Klucel (hydroxypropylcellulose) (HPC)
[8] = dose: 400.0 mg/kg/injection, schedule: Q04DX003 (ip), vehicle: Klucel (hydroxypropylcellulose) (HPC)
[9] = dose: 50.0 mg/kg/injection, schedule: Q01DX009 (ip), vehicle: saline
[10] = dose: 200.0 mg/kg/injection, schedule: Q04DX003 (ip), vehicle: saline with Tween-80
[11] = dose: 400.0 mg/kg/injection, schedule: Q04DX003 (ip), vehicle: saline with Tween-80
[12] = dose: 100.0 mg/kg/injection, schedule: Q01DX009 (ip), vehicle: Klucel (hydroxypropylcellulose) (HPC)
[13] = dose: 200.0 mg/kg/injection, schedule: Q01DX009 (ip), vehicle: Klucel (hydroxypropylcellulose) (HPC)
[14] = dose: 400.0 mg/kg/injection, schedule: Q01DX009 (ip), vehicle: Klucel (hydroxypropylcellulose) (HPC)

Measured: T/C

CCC[CH2][Sn]1([CH2]CCC)[O]OC(c2ccc(C)cc2)[O]1 (configuration not stated)
inactive: dose: 12.5 mg/kg/injection, schedule: Q01DX009 (ip), vehicle: Klucel (hydroxypropylcellulose) (HPC) 101 % of control | dose: 12.5 mg/kg/injection, schedule: Q04DX002 (ip), vehicle: Klucel (hydroxypropylcellulose) (HPC) 94 % of control | dose: 25.0 mg/kg/injection, schedule: Q01DX009 (ip), vehicle: Klucel (hydroxypropylcellulose) (HPC) 119 % of control | dose: 25.0 mg/kg/injection, schedule: Q04DX002 (ip), vehicle: Klucel (hydroxypropylcellulose) (HPC) 86 % of control

COC(=O)c1ccccc1Nc1ccccc1[N+](=O)[O-]
inactive: dose: 75.0 mg/kg/injection, schedule: Q04DX003 (ip), vehicle: Klucel (hydroxypropylcellulose) (HPC) 101 % of control | dose: 100.0 mg/kg/injection, schedule: Q01DX001 (ip), vehicle: Klucel (hydroxypropylcellulose) (HPC) 100 % of control | dose: 150.0 mg/kg/injection, schedule: Q04DX003 (ip), vehicle: Klucel (hydroxypropylcellulose) (HPC) 87 % of control | dose: 200.0 mg/kg/injection, schedule: Q01DX001 (ip), vehicle: Klucel (hydroxypropylcellulose) (HPC) 95 % of control | dose: 300.0 mg/kg/injection, schedule: Q04DX003 (ip), vehicle: Klucel (hydroxypropylcellulose) (HPC) 90 % of control | dose: 400.0 mg/kg/injection, schedule: Q01DX001 (ip), vehicle: Klucel (hydroxypropylcellulose) (HPC) 113 % of control

C1COC(COCC2CO2)C1 (configuration not stated)
inactive: [1] 100 % of control | dose: 100.0 mg/kg/injection, schedule: Q04DX002 (ip), vehicle: saline 98 % of control and 100 % of control and 120 % of control | [2] 99 % of control | [3] 92 % of control | dose: 200.0 mg/kg/injection, schedule: Q04DX002 (ip), vehicle: saline 103 % of control and 109 % of control and 111 % of control | [4] 98 % of control | dose: 400.0 mg/kg/injection, schedule: Q01DX009 (ip), vehicle: saline 93 % of control | dose: 400.0 mg/kg/injection, schedule: Q04DX002 (ip), vehicle: saline 98 % of control and 102 % of control (2×) | [5] 105 % of control

OCC1OC(Sc2ccccc2)C(O)C(O)C1O (configuration not stated)
inactive: [6] 111 % of control | [7] 105 % of control | [8] 111 % of control

CCCCCCCCCCCCCCCCCC[N+]1(C)CCC1C (configuration not stated)
inactive: dose: 0.78 mg/kg/injection, schedule: Q04DX003 (ip), vehicle: saline 102 % of control | dose: 1.56 mg/kg/injection, schedule: Q04DX003 (ip), vehicle: saline 101 % of control

Cc1ccc(S(=O)(=O)Cc2ccccc2)cc1
inactive: dose: 50.0 mg/kg/injection, schedule: Q01DX001 (ip), vehicle: carboxymethylcellulose (CMC) 103 % of control | [9] 103 % of control | dose: 100.0 mg/kg/injection, schedule: Q01DX001 (ip), vehicle: carboxymethylcellulose (CMC) 103 % of control | [1] 99 % of control | dose: 100.0 mg/kg/injection, schedule: Q04DX002 (ip), vehicle: Klucel (hydroxypropylcellulose) (HPC) 100 % of control | dose: 200.0 mg/kg/injection, schedule: Q01DX001 (ip), vehicle: carboxymethylcellulose (CMC) 103 % of control | [3] 94 % of control | dose: 200.0 mg/kg/injection, schedule: Q04DX002 (ip), vehicle: Klucel (hydroxypropylcellulose) (HPC) 106 % of control | dose: 400.0 mg/kg/injection, schedule: Q01DX001 (ip), vehicle: carboxymethylcellulose (CMC) 97 % of control | dose: 400.0 mg/kg/injection, schedule: Q04DX002 (ip), vehicle: Klucel (hydroxypropylcellulose) (HPC) 95 % of control

C[Si](C)(C)C(c1ccccc1)(c1ccccc1)c1ccccc1
inactive: dose: 25.6 mg/kg/injection, schedule: Q04DX002 (ip), vehicle: saline with Tween-80 101 % of control | dose: 64.0 mg/kg/injection, schedule: Q04DX002 (ip), vehicle: saline with Tween-80 90 % of control | [10] 87 % of control | dose: 400.0 mg/kg/injection, schedule: Q04DX002 (ip), vehicle: saline with Tween-80 90 % of control | [11] 88 % of control

N#CSCc1cc(Cl)c(CSC#N)c(Cl)c1Cl
inactive: dose: 75.0 mg/kg/injection, schedule: Q01DX009 (ip), vehicle: saline 89 % of control | dose: 150.0 mg/kg/injection, schedule: Q01DX009 (ip), vehicle: saline 96 % of control | dose: 300.0 mg/kg/injection, schedule: Q01DX009 (ip), vehicle: saline 91 % of control

COc1cc(CCN2CCN(c3cc(C)ccc3Cl)CC2)cc(OC)c1OC
inactive: dose: 100.0 mg/kg/injection, schedule: Q01DX001 (ip), vehicle: other 93 % of control | dose: 200.0 mg/kg/injection, schedule: Q01DX001 (ip), vehicle: other 97 % of control | dose: 400.0 mg/kg/injection, schedule: Q01DX001 (ip), vehicle: other 97 % of control

[O-][n+]1ccc(CCc2ccccc2)cc1
inactive: dose: 100.0 mg/kg/injection, schedule: Q04DX002 (ip), vehicle: saline with Tween-80 101 % of control | dose: 200.0 mg/kg/injection, schedule: Q04DX002 (ip), vehicle: saline with Tween-80 101 % of control

CC1=C(CC/C(C)=C/CCC(=O)O)C(C)(C)CCC1
inactive: [9] 100 % of control | [1] 100 % of control | [2] 116 % of control | [3] 98 % of control | [4] 100 % of control | [5] 111 % of control

O=C1Nc2cccc3cc([N+](=O)[O-])cc1c23
inactive: dose: 100.0 mg/kg/injection, schedule: Q01DX001 (ip), vehicle: saline 101 % of control | dose: 200.0 mg/kg/injection, schedule: Q01DX001 (ip), vehicle: saline 93 % of control | dose: 400.0 mg/kg/injection, schedule: Q01DX001 (ip), vehicle: saline 103 % of control

O=C(O)CC(NCc1ccccc1)C(=O)O (configuration not stated)
inactive: dose: 100.0 mg/kg/injection, schedule: Q01DX009 (ip), vehicle: saline with Tween-80 93 % of control | dose: 200.0 mg/kg/injection, schedule: Q01DX009 (ip), vehicle: saline with Tween-80 91 % of control | dose: 400.0 mg/kg/injection, schedule: Q01DX009 (ip), vehicle: saline with Tween-80 93 % of control

O=P(O)(c1cccc(Cl)c1)c1cccc(Cl)c1
inactive: dose: 100.0 mg/kg/injection, schedule: Q01DX001 (ip), vehicle: acetone 91 % of control | dose: 100.0 mg/kg/injection, schedule: Q04DX003 (ip), vehicle: acetone 97 % of control | dose: 200.0 mg/kg/injection, schedule: Q01DX001 (ip), vehicle: acetone 96 % of control | dose: 200.0 mg/kg/injection, schedule: Q04DX003 (ip), vehicle: acetone 107 % of control | dose: 400.0 mg/kg/injection, schedule: Q01DX001 (ip), vehicle: acetone 91 % of control | dose: 400.0 mg/kg/injection, schedule: Q04DX003 (ip), vehicle: acetone 97 % of control

O=C(Nc1ccccc1C(F)(F)F)N(Cc1ccccc1)Cc1ccccc1
inactive: [12] 101 % of control | [13] 87 % of control | [14] 95 % of control

CC(=O)CC(=O)NC1CCCCCC1
inactive: [12] 92 % of control | [6] 100 % of control | [13] 103 % of control | [7] 100 % of control | [14] 97 % of control | [8] 96 % of control

Cc1ccc(Cl)c(P(=O)(O)O)c1
inactive: dose: 100.0 mg/kg/injection, schedule: Q04DX003 (ip), vehicle: saline with Tween-80 97 % of control | [10] 106 % of control | [11] 104 % of control
